Data taken from patent publication US5945539A, “Oxazole derivatives and use thereof” (Japan Tobacco, Inc., priority 1994, dated 1999).
pIC50: −log10 of the molar value. Like-named read-outs stand apart in the source and are kept apart here.

Key:
cyclooxygenase-2 (COX-2) = target: T1, cyclooxygenase-2 (COX-2) (Ovis aries, UniProt P79208); assay: inhibitory activity on cyclooxygenase-2 (Experimental Example 1-1, sheep placenta solubilized fraction); type: biochemical; conditions: for pIC50: sheep placenta COX-2, pH 8, 24° C.; for inhibition at 100 µM: sheep placenta COX-2, inhibition at 100 μM test compound
T1 sequence (P79208 17-603): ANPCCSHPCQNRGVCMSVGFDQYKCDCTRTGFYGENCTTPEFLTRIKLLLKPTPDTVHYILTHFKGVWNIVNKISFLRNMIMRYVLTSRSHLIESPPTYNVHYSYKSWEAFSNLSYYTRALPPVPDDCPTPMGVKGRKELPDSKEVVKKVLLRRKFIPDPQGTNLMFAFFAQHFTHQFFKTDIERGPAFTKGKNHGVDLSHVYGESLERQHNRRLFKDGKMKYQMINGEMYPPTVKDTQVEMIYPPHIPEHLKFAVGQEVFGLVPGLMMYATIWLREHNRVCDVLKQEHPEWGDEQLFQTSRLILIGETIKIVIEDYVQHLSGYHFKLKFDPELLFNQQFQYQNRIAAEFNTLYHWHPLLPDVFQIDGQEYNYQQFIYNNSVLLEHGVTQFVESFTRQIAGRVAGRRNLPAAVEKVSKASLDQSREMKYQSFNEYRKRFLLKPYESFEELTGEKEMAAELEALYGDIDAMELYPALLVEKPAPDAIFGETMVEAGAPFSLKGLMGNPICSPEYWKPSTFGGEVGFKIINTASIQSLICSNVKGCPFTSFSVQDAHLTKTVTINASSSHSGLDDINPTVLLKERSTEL
Description: (§1) That is, a test sample (20 μl), an enzyme solution (20 μl) and distilled water (10 μl) were added to 100 mM Tris-HCl buffer (pH 8, 140 μl) containing hematin (2 μM) and tryptophan (5 mM), and the mixture was thoroughly stirred, which was followed by preincubation at 24° C. for 5 minutes. Then, a ^1 4 C arachidonic acid solution (10 μl) was added and the mixture was reacted at 24° C., whereafter a solution (40 μl) of ethyl ether/methanol/1 M citric acid (30/4/1) ice-cooled to -20° C. was added to stop the reaction.

cyclooxygenase-1 (COX-1) [1] = target: T2, cyclooxygenase-1 (COX-1) (Ovis aries, UniProt P05979); assay: inhibitory activity on cyclooxygenase-1 (Experimental Example 1-1, sheep seminal vesicle microsome fraction); type: biochemical; conditions: for pIC50: sheep seminal vesicle COX-1, pH 8, 24° C.; for inhibition at 100 µM: sheep seminal vesicle COX-1, inhibition at 100 μM test compound
T2 sequence (P05979 25-600): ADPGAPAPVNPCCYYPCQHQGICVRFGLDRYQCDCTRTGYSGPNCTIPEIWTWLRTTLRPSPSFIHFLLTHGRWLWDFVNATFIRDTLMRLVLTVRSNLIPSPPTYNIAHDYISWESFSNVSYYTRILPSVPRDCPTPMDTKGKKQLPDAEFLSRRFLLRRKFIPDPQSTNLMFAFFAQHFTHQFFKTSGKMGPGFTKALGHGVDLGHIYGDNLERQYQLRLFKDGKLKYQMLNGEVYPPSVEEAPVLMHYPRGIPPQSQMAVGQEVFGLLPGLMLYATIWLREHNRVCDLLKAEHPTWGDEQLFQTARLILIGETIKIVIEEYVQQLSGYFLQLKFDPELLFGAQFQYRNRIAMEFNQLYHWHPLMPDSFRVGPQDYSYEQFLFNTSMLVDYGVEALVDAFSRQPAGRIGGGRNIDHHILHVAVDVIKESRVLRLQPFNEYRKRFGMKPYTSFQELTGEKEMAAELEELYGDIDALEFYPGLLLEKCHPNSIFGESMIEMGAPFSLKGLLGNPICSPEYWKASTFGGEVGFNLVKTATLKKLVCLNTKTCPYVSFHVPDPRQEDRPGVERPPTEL
Description: as §1

[2] = target: T3, human cyclooxygenase-2 (COX-2) (Homo sapiens, UniProt P35354); assay: inhibitory activity on cyclooxygenase-2 (Experimental Example 1-2, human COX-2 expressed by yeast); type: biochemical
T3 construct: made in house
T3 sequence (P35354 18-604): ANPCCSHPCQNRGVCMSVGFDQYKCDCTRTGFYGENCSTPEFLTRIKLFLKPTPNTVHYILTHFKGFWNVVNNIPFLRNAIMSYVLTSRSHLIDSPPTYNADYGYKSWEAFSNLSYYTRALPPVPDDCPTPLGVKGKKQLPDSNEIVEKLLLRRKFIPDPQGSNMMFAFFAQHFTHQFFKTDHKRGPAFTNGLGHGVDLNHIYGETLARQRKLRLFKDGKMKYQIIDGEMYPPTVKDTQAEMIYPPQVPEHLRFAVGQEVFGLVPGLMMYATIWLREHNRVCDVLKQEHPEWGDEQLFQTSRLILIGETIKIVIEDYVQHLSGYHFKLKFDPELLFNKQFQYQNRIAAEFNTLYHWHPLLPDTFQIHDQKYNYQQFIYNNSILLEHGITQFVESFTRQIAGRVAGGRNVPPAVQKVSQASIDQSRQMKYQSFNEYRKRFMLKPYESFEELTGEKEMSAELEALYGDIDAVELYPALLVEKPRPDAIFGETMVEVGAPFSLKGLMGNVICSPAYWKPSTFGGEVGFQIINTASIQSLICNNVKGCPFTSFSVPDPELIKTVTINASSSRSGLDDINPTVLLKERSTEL
Description: as §1

cyclooxygenase-1 (COX-1) [3] = target: T4, cyclooxygenase-1 (COX-1) (Homo sapiens, UniProt P23219); assay: inhibitory activity on cyclooxygenase-1 (Experimental Example 1-2, enzyme prepared from human platelets); type: biochemical; conditions: COX-1 prepared from human platelets
T4 construct: an enzyme prepared from human platelets; from tissue; host or cells: human platelets
Description: as §1

[4] = test system: carrageenin-induced paw edema; assay: effects on carrageenin-induced paw edema in rats (Experimental Example 2); type: in vivo, male Donryu rats; conditions: Rattus norvegicus, po, 3 h
Description: Carrageenin (1%, 0.05 ml) dissolved in physiological saline was subcutaneously injected to the left hind paw of male Donryu rats to induce paw edema. The degree of paw edema was evaluated by measuring the volume of the paw 3 hours after carrageenin administration. […] Inhibitory activity was expressed by the dose (ED30) of the test compound necessary for inhibiting by 30% relative to the control group.

[5] = effects on gastric ulcer formation in rats (Experimental Example 3); set-up: species or system male Donryu rats; conditions: rat, in vivo
Description: A test compound (100 mg/kg) was orally administered (10 ml/kg) to male Donryu rats. Six hours later, the stomach of the rats was exposed and fixed with 0.1% formalin. The stomach was opened and the degree of ulcer formation was evaluated.

T4 sequence (P23219 24-599): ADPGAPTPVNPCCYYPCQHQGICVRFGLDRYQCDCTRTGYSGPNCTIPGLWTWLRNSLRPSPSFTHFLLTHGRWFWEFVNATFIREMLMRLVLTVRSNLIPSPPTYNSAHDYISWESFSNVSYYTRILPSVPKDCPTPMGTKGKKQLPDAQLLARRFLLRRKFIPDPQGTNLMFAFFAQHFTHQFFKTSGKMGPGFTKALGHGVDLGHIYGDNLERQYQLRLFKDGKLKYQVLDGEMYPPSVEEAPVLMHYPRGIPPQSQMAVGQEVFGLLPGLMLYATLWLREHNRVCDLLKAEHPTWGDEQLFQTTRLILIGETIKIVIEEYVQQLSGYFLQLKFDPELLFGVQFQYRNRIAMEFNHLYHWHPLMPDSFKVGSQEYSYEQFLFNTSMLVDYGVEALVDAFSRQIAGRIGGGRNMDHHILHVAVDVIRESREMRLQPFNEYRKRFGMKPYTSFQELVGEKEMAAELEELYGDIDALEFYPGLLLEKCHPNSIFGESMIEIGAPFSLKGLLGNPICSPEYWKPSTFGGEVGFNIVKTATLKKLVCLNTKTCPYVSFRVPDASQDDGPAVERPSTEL

| pIC50 (cyclooxygenase-2 (COX-2)) | inhibition at 100 µM (cyclooxygenase-1 (COX-1) [1]) [%] | SMILES | ED30 [4] [mg/kg] | also measured |
| --- | --- | --- | --- | --- |
| 4.10 | 10 | Cc1nc(-c2ccc(S(C)(=O)=O)cc2)c(-c2ccc(C)s2)o1 [2(B), 4-(4-methylsulfonylphenyl)-2-methyl-5-(5-methyl-2-thienyl)oxazole] |  |  |
| 4.52 | 57 | Cc1nc(-c2ccc(S(C)(=O)=O)cc2)c(-c2ccc(Cl)s2)o1 [10(B), 5-(5-chloro-2-thienyl)-2-methyl-4-(4-methylsulfonylphenyl)oxazole] |  |  |
| 4.30 | 14 | Cc1nc(-c2cccs2)c(-c2ccc(S(C)(=O)=O)cc2)o1 [11(A), 5-(4-methylsulfonylphenyl)-2-methyl-4-(2-thienyl)oxazole] | 9.5 |  |
|  | 6 | Cc1nc(-c2ccc(S(C)(=O)=O)cc2)c(-c2cccs2)o1 [11(B), 4-(4-methylsulfonylphenyl)-2-methyl-5-(2-thienyl)oxazole] |  | inhibition at 100 µM (cyclooxygenase-2 (COX-2)): 2% |
| > 6.00 | 18 | CCc1nc(C2CCCCC2)c(-c2ccc(S(C)(=O)=O)cc2)o1 [Example 3, 4-Cyclohexyl-2-ethyl-5-(4-methylsulfonylphenyl)oxazole] |  |  |
| 5.40 | 26 | Cc1nc(C2CCC(C)CC2)c(-c2ccc(S(C)(=O)=O)cc2)o1 (centres unmarked) [Example 4, 5-(4-methylsulfonylphenyl)-2-methyl-4-(4-methylcyclohexyl)oxazole] |  | pIC50 (cyclooxygenase-1 (COX-1) [3]): < 4.00 |
| 5.00 | 5 | CC1=CCC(c2nc(C)oc2-c2ccc(S(C)(=O)=O)cc2)CC1 (centres unmarked) [Example 5] |  |  |
|  |  | Cc1nc(C2CCCC2)c(-c2ccc(S(C)(=O)=O)cc2)o1 [Example 6, 4-cyclopentyl-2-methyl-5-(4-methylsulfonylphenyl)oxazole] |  | inhibition at 100 µM (cyclooxygenase-2 (COX-2)): 18%; pIC50 (cyclooxygenase-1 (COX-1) [1]): 4.30 |
|  |  | Cc1nc(C2CCCCCC2)c(-c2ccc(S(C)(=O)=O)cc2)o1 [Example 7, 4-cycloheptyl-2-methyl-5-(4-methylsulfonylphenyl)oxazole] |  | pIC50 (cyclooxygenase-1 (COX-1) [1]): 5.70 |
|  | 7 | Cc1nc(-c2ccco2)c(-c2ccc(S(C)(=O)=O)cc2)o1 [Example 8, 4-(2-furyl)-2-methyl-5-(4-methylsulfonylphenyl)oxazole] |  | inhibition at 100 µM (cyclooxygenase-2 (COX-2)): 7% |
|  | 2 | Cc1nc(-c2ccsc2)c(-c2ccc(S(C)(=O)=O)cc2)o1 [Example 9, 5-(4-methylsulfonylphenyl)-2-methyl-4-(3-thienyl)oxazole] |  | inhibition at 100 µM (cyclooxygenase-2 (COX-2)): 35% |
|  |  | CS(=O)(=O)c1ccc(-c2oc(-c3ccccc3)nc2C2CCCCC2)cc1 [Example 12, 2-phenyl-4-cyclohexyl-5-(4-methylsulfonylphenyl)oxazole, reference compound] |  | inhibition at 100 µM (cyclooxygenase-2 (COX-2)): 16%; pIC50 (cyclooxygenase-1 (COX-1) [1]): < 4.00 |
|  |  | Cc1nc(-c2ccc(Cl)s2)c(-c2ccc(S(N)(=O)=O)cc2)o1 [Example 13, 5-(4-Aminosulfonylphenyl)-4-(5-chloro-2-thienyl)-2-methyloxazole] |  | pIC50 [2]: 7.70; pIC50 (cyclooxygenase-1 (COX-1) [3]): 6.22 |
|  |  | CNS(=O)(=O)c1ccc(-c2oc(C)nc2C2CCCCC2)cc1 [Example 15, 4-Cyclohexyl-2-methyl-5-(4-methylaminosulfonylphenyl)oxazole] |  | pIC50 [2]: 5.40 |
|  |  | COc1ccc2c(c1)c(CC(=O)O)c(C)n2C(=O)c1ccc(Cl)cc1 [indomethacin, reference compound] | 2.9 | TD50 at 6 h ([5]; oral, stomach examined six hours later, read-out: gastric ulcer formation in rats): 10 mg/kg |

| SMILES | pIC50 (cyclooxygenase-2 (COX-2)) | inhibition at 100 µM (cyclooxygenase-1 (COX-1) [1]) [%] | ED30 [4] [mg/kg] | also measured |
| --- | --- | --- | --- | --- |
| Cc1nc(-c2ccc(C)s2)c(-c2ccc(S(C)(=O)=O)cc2)o1 [2(A), 5-(4-methylsulfonylphenyl)-2-methyl-4-(5-methyl-2-thienyl)oxazole] | 6.40 |  | 10.8 | pIC50 (cyclooxygenase-1 (COX-1) [1]): 4.30; pIC50 [2]: 7.40; pIC50 (cyclooxygenase-1 (COX-1) [3]): 4.32; TD50 at 6 h ([5]; po): > 100 mg/kg |
| Cc1nc(-c2ccc(Cl)s2)c(-c2ccc(S(C)(=O)=O)cc2)o1 [10(A), 4-(5-chloro-2-thienyl)-2-methyl-5-(4-methylsulfonylphenyl)oxazole] | 6.70 | 13 | 5.4 | pIC50 [2]: 7.52; pIC50 (cyclooxygenase-1 (COX-1) [3]): 4.90; TD50 at 6 h ([5]; po): > 100 mg/kg |
| Cc1nc(C2CCCCC2)c(-c2ccc(S(C)(=O)=O)cc2)o1 [Example 1, 4-Cyclohexyl-2-methyl-5-(4-methylsulfonylphenyl)oxazole] |  | 11 | 5.4 | TD50 at 6 h ([5]; po): > 100 mg/kg |
| Cc1nc(C2CCCCC2)c(-c2ccc(S(N)(=O)=O)cc2)o1 [Example 14, 5-(4-Aminosulfonylphenyl)-4-cyclohexyl-2-methyloxazole] | 5.82 |  | 4.5 | pIC50 (cyclooxygenase-1 (COX-1) [1]): < 4.00; pIC50 [2]: 7.15; TD50 at 6 h ([5]; po): > 100 mg/kg |
